Biological target: T1, Apaf-1 (Homo sapiens, UniProt O14727)
T1 sequence (O14727 1-1248): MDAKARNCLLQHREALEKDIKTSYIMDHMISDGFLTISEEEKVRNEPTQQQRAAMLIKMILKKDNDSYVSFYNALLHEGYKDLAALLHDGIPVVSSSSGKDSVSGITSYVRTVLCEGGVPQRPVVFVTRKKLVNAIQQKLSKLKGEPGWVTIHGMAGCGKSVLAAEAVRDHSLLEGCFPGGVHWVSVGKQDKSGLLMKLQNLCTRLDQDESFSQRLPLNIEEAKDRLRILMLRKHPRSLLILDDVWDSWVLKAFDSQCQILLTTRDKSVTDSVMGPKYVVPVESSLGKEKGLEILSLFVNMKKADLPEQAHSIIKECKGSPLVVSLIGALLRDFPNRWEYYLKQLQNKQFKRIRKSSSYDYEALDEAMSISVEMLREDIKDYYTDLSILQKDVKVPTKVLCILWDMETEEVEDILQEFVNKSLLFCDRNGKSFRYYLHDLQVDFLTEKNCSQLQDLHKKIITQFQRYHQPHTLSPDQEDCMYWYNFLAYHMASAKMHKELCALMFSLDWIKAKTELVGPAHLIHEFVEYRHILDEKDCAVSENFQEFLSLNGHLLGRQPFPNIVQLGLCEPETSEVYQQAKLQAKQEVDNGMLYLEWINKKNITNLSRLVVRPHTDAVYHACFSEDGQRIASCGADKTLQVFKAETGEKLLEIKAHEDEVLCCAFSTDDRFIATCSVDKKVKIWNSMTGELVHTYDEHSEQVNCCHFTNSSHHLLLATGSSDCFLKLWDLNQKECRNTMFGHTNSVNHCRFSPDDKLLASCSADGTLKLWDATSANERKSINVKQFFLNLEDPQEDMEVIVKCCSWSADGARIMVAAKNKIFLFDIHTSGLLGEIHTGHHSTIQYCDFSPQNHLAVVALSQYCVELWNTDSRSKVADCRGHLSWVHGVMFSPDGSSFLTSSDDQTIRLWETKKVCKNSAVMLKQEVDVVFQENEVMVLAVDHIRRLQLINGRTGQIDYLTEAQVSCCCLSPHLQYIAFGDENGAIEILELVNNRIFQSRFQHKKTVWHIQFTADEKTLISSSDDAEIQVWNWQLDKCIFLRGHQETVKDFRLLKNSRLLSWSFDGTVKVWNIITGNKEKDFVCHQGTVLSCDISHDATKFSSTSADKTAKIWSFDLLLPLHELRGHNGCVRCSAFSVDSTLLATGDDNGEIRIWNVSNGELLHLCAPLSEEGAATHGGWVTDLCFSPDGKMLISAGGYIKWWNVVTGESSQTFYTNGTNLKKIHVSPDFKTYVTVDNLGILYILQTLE
T1 sequence (P06454 2-111 partner): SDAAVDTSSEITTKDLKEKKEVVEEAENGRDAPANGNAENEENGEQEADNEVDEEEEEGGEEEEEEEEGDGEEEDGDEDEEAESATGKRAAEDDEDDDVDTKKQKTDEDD
Test: ELISA and FLAG-IP of recombinant Apaf-1/ProT interaction blocked by BETT
Type: biochemical

Compound: Sc1nnc(-c2cc3ccccc3o2)n1-c1ccccc1 [BETT, 5-(2-Benzofuryl)-4-phenyl-1,2,4-triazole-3-thiol]
- EC50: ~50 µM
